{
  "source": "patent US10054581B1",
  "about": "“Inhibitors of notch signaling pathway and use thereof in treatment of cancers” (Ecole Polytechnique Federale de Lausanne (EPFL), priority 2011, dated 2018)",
  "key": {"[1]": {"tested_on": "nRas driven melanoma cell lines", "assay": "Alamar blue proliferation assay, nRas driven melanoma cells", "type": "cell-based, human", "settings": "10 μM, 4 days", "description": "Human T-ALL cell lines RPMI 8402 and KOPTK1, and pancreatic cancer cell line PANC1 as well as nRas driven melanoma cells were seeded in a 96 well plate and treated with 10 μM concentration of 6-(4-Tert-Butylphenoxy)Pyridin-3-Amine (I3) and DAPT for several days. Their growth inhibitory effects were compared with cells treated with equal amount of DMSO. Using Alamar blue assay, the growth kinetics of RPMI 8402 and KOPTK1 were followed for upto 6 days, while PANC1 and nRas melanoma cells were monitored for 4 days. 6-(4-Tert-Butylphenoxy)Pyridin-3-Amine (I3) treatment of RPMI 8402, KOPTK1. […] Statistical analyses were done using student's t.test. *=p value<0.05. ns=not significant.\nAlamarblue® proliferation assays were performed to determine the growth kinetics of Notch inhibitor treated cells. Alamar Blue® consists of a cell permeable substrate resazurin. In metabolically active and proliferating cells, resazurin is converted to resorufin due to an intrinsic reducing power of live cells and produces a red fluorescence. Therefore production of resorufin serves as an indicator of the viability of the cell population.\nProliferation assays were performed by seeding 5000 cells/well in a 96 well plate. Cells were treated with DMSO or Notch inhibitors for different time intervals. […] Alamarblue readout was taken using Tecan F500 (Tecan) multiplate reader. […]"}, "[2]": {"tested_on": "Wnt signalling (β-catenin-TCF/LEF driven luciferase)", "assay": "Wnt signalling TOP-luciferase assay in HeLa cells", "type": "cell-based", "settings": "HeLa cells co-transfected with β-catenin and TOP-luciferase", "description": "One of the concerns about the activity of the chemical compound 6-(4-Tert-Butylphenoxy)Pyridin-3-Amine (I3) is its specificity towards the Notch signalling pathway. In order to test whether 6-(4-Tert-Butylphenoxy)Pyridin-3-Amine (I3) could also block other developmental pathways, Applicants have tested its ability to block the Wnt and Hedgehog signalling pathways. In summary, to measure Wnt signalling, HeLa cells were transfected with a plasmid containing a promoter consisting of TCF/LEF binding sites and thereby driving the expression of a luciferase gene (TOP-luciferase). To activate the Wnt pathway, a plasmid encoding for β-catenin was co-transfected into HeLa cells. The co-transfected cells were incubated in the presence or absence of the 6-(4-Tert-Butylphenoxy)Pyridin-3-Amine (I3) chemical compound. Transient introduction of β-catenin leads to an upregulation of Wnt signalling as measured by β-catenin-TCF/LEF driven luciferase activity."}, "[3]": {"target": "T1, NICD, MAML1 and CSL/RBP-jk (Homo sapiens, UniProt P46531+Q06330+Q92585)", "T1 construct": "expressed in transfected cells; host or cells: HeLa cells (NICD-GFP and MAML1-FLAG transfected; CSL/RBP-jk endogenous)", "T1 sequence (P46531 1754-2555 limits assumed)": "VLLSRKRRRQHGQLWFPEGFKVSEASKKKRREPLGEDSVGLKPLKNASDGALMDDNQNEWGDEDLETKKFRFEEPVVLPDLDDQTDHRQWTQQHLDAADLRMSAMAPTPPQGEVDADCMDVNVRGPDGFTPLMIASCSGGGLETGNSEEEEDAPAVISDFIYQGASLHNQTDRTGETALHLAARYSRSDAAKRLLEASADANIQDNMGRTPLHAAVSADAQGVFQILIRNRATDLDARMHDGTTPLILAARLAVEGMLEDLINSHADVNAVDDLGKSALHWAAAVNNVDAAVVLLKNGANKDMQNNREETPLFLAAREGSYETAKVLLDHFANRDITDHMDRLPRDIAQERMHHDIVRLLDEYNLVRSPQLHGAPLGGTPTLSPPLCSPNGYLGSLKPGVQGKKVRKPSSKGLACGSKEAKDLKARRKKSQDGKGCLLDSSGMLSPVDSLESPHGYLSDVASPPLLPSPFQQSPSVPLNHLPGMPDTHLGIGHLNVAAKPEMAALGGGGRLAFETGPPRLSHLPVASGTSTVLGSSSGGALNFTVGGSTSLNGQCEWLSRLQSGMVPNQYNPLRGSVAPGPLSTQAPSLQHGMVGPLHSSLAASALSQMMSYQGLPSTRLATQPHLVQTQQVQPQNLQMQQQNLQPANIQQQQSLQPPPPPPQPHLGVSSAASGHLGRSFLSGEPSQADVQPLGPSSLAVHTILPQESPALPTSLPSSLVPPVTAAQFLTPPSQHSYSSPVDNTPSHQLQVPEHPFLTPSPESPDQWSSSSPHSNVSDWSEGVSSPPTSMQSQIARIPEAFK", "T1 sequence (Q92585 whole entry)": "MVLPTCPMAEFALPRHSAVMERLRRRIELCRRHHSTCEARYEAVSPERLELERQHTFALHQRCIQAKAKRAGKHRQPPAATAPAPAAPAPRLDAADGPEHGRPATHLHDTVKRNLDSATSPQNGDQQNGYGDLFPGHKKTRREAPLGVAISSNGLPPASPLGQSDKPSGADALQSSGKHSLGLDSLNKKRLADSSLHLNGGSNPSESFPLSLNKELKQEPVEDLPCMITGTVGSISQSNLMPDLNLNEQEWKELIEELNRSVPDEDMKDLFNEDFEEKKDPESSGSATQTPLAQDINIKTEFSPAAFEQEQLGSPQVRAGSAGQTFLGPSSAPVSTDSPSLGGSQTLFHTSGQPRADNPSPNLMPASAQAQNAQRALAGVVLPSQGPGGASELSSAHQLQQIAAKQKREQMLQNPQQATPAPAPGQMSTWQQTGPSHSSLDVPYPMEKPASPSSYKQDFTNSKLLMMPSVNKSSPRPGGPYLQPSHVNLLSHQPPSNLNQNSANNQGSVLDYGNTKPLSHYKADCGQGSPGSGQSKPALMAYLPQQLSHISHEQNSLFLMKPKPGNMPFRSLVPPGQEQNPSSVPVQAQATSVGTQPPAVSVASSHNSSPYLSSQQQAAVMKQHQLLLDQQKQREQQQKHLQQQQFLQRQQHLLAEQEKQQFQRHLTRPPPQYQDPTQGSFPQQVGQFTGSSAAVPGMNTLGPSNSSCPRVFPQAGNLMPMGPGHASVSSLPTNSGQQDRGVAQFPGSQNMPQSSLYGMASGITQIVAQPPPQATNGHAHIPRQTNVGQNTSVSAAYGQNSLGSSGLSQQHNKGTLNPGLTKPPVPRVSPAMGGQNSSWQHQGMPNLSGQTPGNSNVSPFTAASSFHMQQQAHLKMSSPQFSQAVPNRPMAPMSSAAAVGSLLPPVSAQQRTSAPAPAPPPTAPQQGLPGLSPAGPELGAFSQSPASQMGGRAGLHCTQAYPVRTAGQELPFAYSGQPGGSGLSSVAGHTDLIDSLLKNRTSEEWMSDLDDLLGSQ", "T1 sequence (Q06330 whole entry)": "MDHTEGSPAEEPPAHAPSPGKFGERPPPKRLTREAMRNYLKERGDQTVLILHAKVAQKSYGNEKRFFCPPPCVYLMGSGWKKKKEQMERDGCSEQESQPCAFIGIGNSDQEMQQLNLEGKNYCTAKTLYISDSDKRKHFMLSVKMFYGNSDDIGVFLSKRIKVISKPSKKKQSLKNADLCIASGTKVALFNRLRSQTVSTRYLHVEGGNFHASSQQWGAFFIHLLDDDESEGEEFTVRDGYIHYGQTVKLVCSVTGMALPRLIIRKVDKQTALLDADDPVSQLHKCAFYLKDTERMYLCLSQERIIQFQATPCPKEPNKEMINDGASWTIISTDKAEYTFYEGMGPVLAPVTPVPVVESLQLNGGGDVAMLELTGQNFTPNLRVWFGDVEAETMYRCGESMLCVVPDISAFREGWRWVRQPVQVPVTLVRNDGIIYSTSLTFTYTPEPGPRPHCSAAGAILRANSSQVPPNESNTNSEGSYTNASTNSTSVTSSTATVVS", "assay": "Microscopy of NICD-GFP, MAML1-FLAG and CSL/RBP-jk localization in HeLa cells", "type": "cell-based", "description": "To perform immunofluorescence staining, HeLa cells or C2C12 cells were grown on cover slips. Cells were washed with 1× ice-cold PBS, fixed with 4% PFA for 5 minutes at room temperature and permeabilized using 0.3% Triton X-100. Subsequently permeabilized cells were blocked for 20 minutes with 1% BSA for 20 minutes at room temperature. Cells were incubated with appropriate primary antibodies for […] at room temperature. Alexa Fluor-488 conjugated secondary antibodies were used to detect primary antibodies. Cells were counterstained with DAPI and mounted in fluorescent mounting media. Fluorescent images were viewed and captured using Zeiss Axioplan microscope at Bioimaging and optics core facility at EPFL.\nThis raises several possibilities about the mechanism of action of 6-(4-Tert-Butylphenoxy)Pyridin-3-Amine (I3). For example, 6-(4-Tert-Butylphenoxy)Pyridin-3-Amine (I3) treatment could impair nuclear localization of the NICD. A second possible mechanism of inhibition could be targeting of one or more individual components of the transcriptional activation complex in the nucleus. […] In parallel, the 6-(4-Tert-Butylphenoxy)Pyridin-3-Amine (I3) mediated pathway inhibition was determined by Notch driven luciferase measurement (data not shown). […]"}},
  "note": "“Also recorded” adds a separate entry of the source.",
  "data": [
    {"compound": "CC(C)(C)c1ccc(Oc2ccc(N)cn2)cc1", "note": "[I3, 6-(4-Tert-Butylphenoxy)Pyridin-3-Amine]", "values": [
      {"measurement": "proliferation (Alamar blue)", "setting": "[1]", "value": "significantly inhibited the growth; also recorded: caused a significant reduction in their growth potential"},
      {"measurement": "Wnt pathway activation", "setting": "[2]", "value": "does not block the Wnt pathway activation"},
      {"measurement": "co-localization of NICD, MAML1 and CSL/RBP-jk in sub-nuclear compartments", "setting": "[3]; 800 ng NICD-GFP + 1 μg MAML1-FLAG, I3 10 μM, 24 hours", "value": "did not perturb the translocation and co-localization of NICD-GFP and MAML1 into sub-nuclear compartment; also recorded: did not perturb their distribution in the nucleus; also recorded: does not impede co-localization of NICD, MAML1 and CSL/RBP-jk in the sub-nuclear compartments"},
      {"measurement": "nuclear localization of NICD-GFP", "setting": "[3]; HeLa cells transfected with NICD-GFP", "value": "not perturbed; also recorded: did not alter its nuclear localization"}
    ]}
  ]
}
